How the values were obtained:
Test in all cases: in vitro antibacterial activity, agar dilution MIC
Format in all cases: cell-based
[1] = test system: Staphylococcus aureus NCTC10649M; conditions: organism code EE, BHI agar, 35-37 °C, 20 to 24 hours
Method: (§1) Erythromycin A was used for this purpose.
(§2) After incubation, each plate was visually inspected.

Escherichia coli JUHL = conditions: organism code QQ, BHI agar, 35-37 °C, 20 to 24 hours
Method: as §1, §2

Escherichia coli SS = conditions: organism code RR, BHI agar, 35-37 °C, 20 to 24 hours
Method: as §1, §2

[2] = test system: Enterococcus faecium ATCC 8043; conditions: organism code II, BHI agar, 35-37 °C, 20 to 24 hours
Method: as §1, §2

[3] = test system: Staphylococcus epidermidis 3519; conditions: organism code HH, BHI agar, 35-37 °C, 20 to 24 hours
Method: as §1, §2

[4] = test system: Haemophilis Influenzae DILL AMP R; conditions: organism code WW, BHI agar, 35-37 °C, 20 to 24 hours
Method: as §1, §2

[5] = test system: Staphylococcus aureus CMX 642A; conditions: organism code DD, BHI agar, 35-37 °C, 20 to 24 hours
Method: as §1, §2

[6] = test system: Nocardia Asteroides ATCC9970; conditions: organism code VV, BHI agar, 35-37 °C, 20 to 24 hours
Method: as §1, §2

[7] = test system: Streptococcus Pheumoniae 5649; conditions: organism code ZZA, BHI agar, 35-37 °C, 20 to 24 hours
Method: as §1, §2

[8] = test system: Streptococcus Pheumoniae GYR 1171; conditions: organism code YY, BHI agar, 35-37 °C, 20 to 24 hours
Method: as §1, §2

[9] = test system: Micrococcus luteus ATCC 9341; conditions: organism code OO, BHI agar, 35-37 °C, 20 to 24 hours
Method: as §1, §2

[10] = test system: Micrococcus luteus ATCC 4698; conditions: organism code PP, BHI agar, 35-37 °C, 20 to 24 hours
Method: as §1, §2

[11] = test system: Staphylococcus aureus CMX 553; conditions: organism code FF, BHI agar, 35-37 °C, 20 to 24 hours
Method: as §1, §2

[12] = test system: Mycobacterium smegmatis ATCC 114; parameters: unit not given here; conditions: organism code UU, BHI agar, 35-37 °C, 20 to 24 hours
In short: (§3)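 Twelve successive aqueous dilutions of compound were mixed into Brain Heart Infusion agar plates, each spotted by replicator with 1:100 culture dilutions (1:10 for slow growers such as Streptococcus). MIC was the lowest concentration giving no growth, slight haze or sparse isolated colonies versus drug-free control.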

[13] = test system: Staphylococcus aureus A5177; parameters: unit not given here; conditions: organism code BB, BHI agar, 35-37 °C, 20 to 24 hours
In short: as §3

[14] = test system: Streptococcus bovis A-5169; parameters: unit not given here; conditions: organism code JJ, BHI agar, 35-37 °C, 20 to 24 hours
Method: as §1, §2

[15] = test system: Streptococcus Pheumoniae ATCC6303; parameters: unit not given here; conditions: organism code XX, BHI agar, 35-37 °C, 20 to 24 hours
Method: as §1, §2

[16] = test system: Streptococcus pyogenes EES61; parameters: unit not given here; conditions: organism code LL, BHI agar, 35-37 °C, 20 to 24 hours
Method: as §1, §2

[17] = test system: Staphylococcus aureus ATCC 6538P; parameters: unit not given here; conditions: organism code AA, BHI agar, 35-37 °C, 20 to 24 hours
Method: as §1, §2

[18] = test system: Streptococcus agalactiae CMX 508; parameters: unit not given here; conditions: organism code KK, BHI agar, 35-37 °C, 20 to 24 hours
Method: as §1, §2

[19] = test system: Streptococcus Pheumoniae 5979; conditions: organism code ZZ, BHI agar, 35-37 °C, 20 to 24 hours
In short: as §3

Escherichia coli DC-2 = conditions: organism code SS, BHI agar, 35-37 °C, 20 to 24 hours
In short: as §3

[20] = test system: Staphylococcus aureus 1775; conditions: organism code GG, BHI agar, 35-37 °C, 20 to 24 hours
In short: as §3

[21] = test system: Streptococcus pyogenes PIU 2548; conditions: organism code NN, BHI agar, 35-37 °C, 20 to 24 hours
In short: as §3

Candida albicans CCH 442 = conditions: organism code TT, BHI agar, 35-37 °C, 20 to 24 hours
In short: as §3

[22] = test system: Streptococcus pyogenes 930; conditions: organism code MM, BHI agar, 35-37 °C, 20 to 24 hours
In short: as §3

[23] = test system: Staphylococcus aureus A-5278; conditions: organism code CC, BHI agar, 35-37 °C, 20 to 24 hours
In short: as §3

CC[C@H]1OC(=O)[C@H](C)[C@@H](O[C@H]2C[C@@](C)(OC)[C@@H](OC(C)=O)[C@H](C)O2)[C@H](C)[C@@H](O[C@@H]2O[C@H](C)C[C@H](N(C)C)[C@H]2O)[C@@]2(C)C[C@@H](C)C(=O)[C@H](C)[C@H]3N(CCNCc4cccc(c4)C=CCO2)C(=O)O[C@]13C [Example 10, Compound of Formula (I), 2'-R^p is H, 4"-R^p is acetyl, m is 2, A is NH, B is-(CH2)q-, q is 1, D is 1,3-phenylene, E is-(CH2)r-CH=CH-, r is 0, n is 1]
minimum inhibitory concentration (MIC) [1]: 6.2
minimum inhibitory concentration (MIC) (Escherichia coli JUHL): >100
minimum inhibitory concentration (MIC) (Escherichia coli SS): 6.2
minimum inhibitory concentration (MIC) [2]: 0.78
minimum inhibitory concentration (MIC) [3]: 6.2
minimum inhibitory concentration (MIC) [4]: 64
minimum inhibitory concentration (MIC) [5]: 6.2
minimum inhibitory concentration (MIC) [6]: 1.56
minimum inhibitory concentration (MIC) [7]: 8
minimum inhibitory concentration (MIC) [8]: 0.25
minimum inhibitory concentration (MIC) [9]: 0.39
minimum inhibitory concentration (MIC) [10]: 1.56
minimum inhibitory concentration (MIC) [11]: 6.2
minimum inhibitory concentration (MIC) [12]: 0.39
minimum inhibitory concentration (MIC) [13]: 25
minimum inhibitory concentration (MIC) [14]: 0.39
minimum inhibitory concentration (MIC) [15]: 0.12
minimum inhibitory concentration (MIC) [16]: 0.78
minimum inhibitory concentration (MIC) [17]: 6.2
minimum inhibitory concentration (MIC) [18]: 0.39
minimum inhibitory concentration (MIC) [19]: 64
minimum inhibitory concentration (MIC) (Escherichia coli DC-2): >100
minimum inhibitory concentration (MIC) [20]: 100
minimum inhibitory concentration (MIC) [21]: 6.2
minimum inhibitory concentration (MIC) (Candida albicans CCH 442): >100
minimum inhibitory concentration (MIC) [22]: 25
minimum inhibitory concentration (MIC) [23]: 100

CC[C@H]1OC(=O)[C@H](C)[C@@H](O[C@H]2C[C@@](C)(OC)[C@@H](O)[C@H](C)O2)[C@H](C)[C@@H](O[C@@H]2O[C@H](C)C[C@H](N(C)C)[C@H]2O)[C@@]2(C)C[C@@H](C)C(=O)[C@H](C)[C@H]3N(CCNC(=O)Cc4ccccc4C=CCO2)C(=O)O[C@]13C [Example 6, Compound of Formula (I), 2'-R^p is H, 4"-R^p is H, m is 2, A is NH, B is -C(O)-(CH2)q-, q is 1, D is 1,2-phenylene, E is-(CH2)r-CH=CH-, r is 0, n is 1]
minimum inhibitory concentration (MIC) [1]: 1.56
minimum inhibitory concentration (MIC) (Escherichia coli JUHL): 100
minimum inhibitory concentration (MIC) (Escherichia coli SS): 3.1
minimum inhibitory concentration (MIC) [2]: 0.39
minimum inhibitory concentration (MIC) [3]: 0.78
minimum inhibitory concentration (MIC) [4]: 8
minimum inhibitory concentration (MIC) [5]: 1.56
minimum inhibitory concentration (MIC) [6]: 0.39
minimum inhibitory concentration (MIC) [7]: 16
minimum inhibitory concentration (MIC) [8]: 0.03
minimum inhibitory concentration (MIC) [9]: 0.1
minimum inhibitory concentration (MIC) [10]: 0.78
minimum inhibitory concentration (MIC) [11]: 0.78
minimum inhibitory concentration (MIC) [12]: 0.39
minimum inhibitory concentration (MIC) [13]: 12.5
minimum inhibitory concentration (MIC) [14]: 0.1
minimum inhibitory concentration (MIC) [15]: 0.03
minimum inhibitory concentration (MIC) [16]: 0.2
minimum inhibitory concentration (MIC) [17]: 0.78
minimum inhibitory concentration (MIC) [18]: 0.1
minimum inhibitory concentration (MIC) [19]: >128
minimum inhibitory concentration (MIC) (Escherichia coli DC-2): >100
minimum inhibitory concentration (MIC) [20]: >100
minimum inhibitory concentration (MIC) [21]: 12.5
minimum inhibitory concentration (MIC) (Candida albicans CCH 442): >100
minimum inhibitory concentration (MIC) [22]: >100
minimum inhibitory concentration (MIC) [23]: >100

Reference: patent publication EP1027361B1, “6,11-BRIDGED ERYTHROMYCIN DERIVATIVES” (Abbott Laboratories, priority 1997, dated 1999)
